Results reported in PubChem BioAssay AID1963420 (Molecular Pharmacology Branch, DTP, NCI, 2024).

Test system: 494315-158-R-J1-PDC complex spheroid growth, percent test/control
Test: Anticancer human tumor 494315-158-R-J1-PDC patient-derived soft tissue sarcoma cell line growth inhibition [Asc]
Details: for IC50: curve of first compound; for viability, T/C: stronger effect = lower value
How it was run: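 Stromal components (HUVEC and hMSC) are co-assembled with the cancer cells into multicellular spheroids. Drugs are then added singly or paired, at concentrations falling by half-log increments from a clinically achievable maximum, capped at 10 microM without known Cmax.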

[1] = second compound 0.01 µM, first compound 0.00316 µM
[2] = second compound 0.01 µM, first compound 0.01 µM
[3] = second compound 0.01 µM, first compound 0.0316 µM
[4] = second compound 0.01 µM, first compound 0.1 µM
[5] = second compound 0.0316 µM, first compound 0.00316 µM
[6] = second compound 0.0316 µM, first compound 0.01 µM
[7] = second compound 0.0316 µM, first compound 0.0316 µM
[8] = second compound 0.0316 µM, first compound 0.1 µM
[9] = second compound 0.1 µM, first compound 0.00316 µM
[10] = second compound 0.1 µM, first compound 0.01 µM
[11] = second compound 0.1 µM, first compound 0.0316 µM
[12] = second compound 0.1 µM, first compound 0.1 µM
[13] = second compound 0.316 µM, first compound 0.00316 µM
[14] = second compound 0.316 µM, first compound 0.01 µM
[15] = second compound 0.316 µM, first compound 0.0316 µM
[16] = second compound 0.316 µM, first compound 0.1 µM
[17] = second compound 1 µM, first compound 0.00316 µM
[18] = second compound 1 µM, first compound 0.01 µM
[19] = second compound 1 µM, first compound 0.0316 µM
[20] = second compound 1 µM, first compound 0.1 µM
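Also: compound exposure lasted seven days after spheroids formed for three days.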

## COc1c(OCCCN2CCOCC2)ccc2c3n(c(=NC(=O)c4cnc(N)nc4)nc12)CCN3 + CNC(C)C(=O)NC1CN(S(=O)(=O)c2cccc(S(=O)(=O)N3CCC4CCC(C(=O)NC(c5ccccc5)c5ccccc5)N4C(=O)C(NC(=O)C(C)NC)C3)c2)CCC2CCC(C(=O)NC(c3ccccc3)c3ccccc3)N2C1=O
Second compound 0.01 µM
  IC50: 17.1 nM
Second compound 0.0316 µM
  IC50: 11 nM
Second compound 0.1 µM
  IC50: 4.59 nM
Second compound 0.316 µM
  IC50: < 3.16 nM
Second compound 1 µM
  IC50: < 3.16 nM
[1]
  viability, T/C: 65.8%
[2]
  viability, T/C: 55.1%
[3]
  viability, T/C: 44.7%
[4]
  viability, T/C: 22.7%
Second compound 0.01 µM, first compound 0.316 µM
  viability, T/C: 16.8%
Second compound 0.01 µM, first compound 1 µM
  viability, T/C: 8.91%
[5]
  viability, T/C: 53.5%
[6]
  viability, T/C: 54.3%
[7]
  viability, T/C: 37.3%
[8]
  viability, T/C: 25.5%
Second compound 0.0316 µM, first compound 0.316 µM
  viability, T/C: 14%
Second compound 0.0316 µM, first compound 1 µM
  viability, T/C: 9.58%
[9]
  viability, T/C: 52.3%
[10]
  viability, T/C: 45.3%
[11]
  viability, T/C: 30.1%
[12]
  viability, T/C: 18.9%
Second compound 0.1 µM, first compound 0.316 µM
  viability, T/C: 12.8%
Second compound 0.1 µM, first compound 1 µM
  viability, T/C: 9.36%
[13]
  viability, T/C: 38.2%
[14]
  viability, T/C: 39.2%
[15]
  viability, T/C: 28.4%
[16]
  viability, T/C: 16.8%
Second compound 0.316 µM, first compound 0.316 µM
  viability, T/C: 11.8%
Second compound 0.316 µM, first compound 1 µM
  viability, T/C: 9.4%
[17]
  viability, T/C: 47.4%
[18]
  viability, T/C: 35.2%
[19]
  viability, T/C: 25.2%
[20]
  viability, T/C: 18.6%
Second compound 1 µM, first compound 0.316 µM
  viability, T/C: 9.45%
Second compound 1 µM, first compound 1 µM
  viability, T/C: 7.69%

## NC(=O)C(=Cn1cnc(-c2cc(C(F)(F)F)cc(C(F)(F)F)c2)n1)c1cncnc1 + CNC(C)C(=O)NC1CN(S(=O)(=O)c2cccc(S(=O)(=O)N3CCC4CCC(C(=O)NC(c5ccccc5)c5ccccc5)N4C(=O)C(NC(=O)C(C)NC)C3)c2)CCC2CCC(C(=O)NC(c3ccccc3)c3ccccc3)N2C1=O
Second compound 0.01 µM
  IC50: 50.5 nM
Second compound 0.0316 µM
  IC50: 12 nM
Second compound 0.1 µM
  IC50: 9.95 nM
Second compound 0.316 µM
  IC50: 1.27 nM
Second compound 1 µM
  IC50: < 0.949 nM
Second compound 0.01 µM, first compound 0.000949 µM
  viability, T/C: 73.4%
Second compound 0.01 µM, first compound 0.003 µM
  viability, T/C: 70.6%
Second compound 0.01 µM, first compound 0.00949 µM
  viability, T/C: 59.4%
Second compound 0.01 µM, first compound 0.03 µM
  viability, T/C: 54.2%
Second compound 0.01 µM, first compound 0.0949 µM
  viability, T/C: 46.8%
Second compound 0.01 µM, first compound 0.3 µM
  viability, T/C: 7.92%
Second compound 0.0316 µM, first compound 0.000949 µM
  viability, T/C: 58.4%
Second compound 0.0316 µM, first compound 0.003 µM
  viability, T/C: 58.8%
Second compound 0.0316 µM, first compound 0.00949 µM
  viability, T/C: 51.9%
Second compound 0.0316 µM, first compound 0.03 µM
  viability, T/C: 41.4%
Second compound 0.0316 µM, first compound 0.0949 µM
  viability, T/C: 27.8%
Second compound 0.0316 µM, first compound 0.3 µM
  viability, T/C: 7.91%
Second compound 0.1 µM, first compound 0.000949 µM
  viability, T/C: 51%
Second compound 0.1 µM, first compound 0.003 µM
  viability, T/C: 64.5%
Second compound 0.1 µM, first compound 0.00949 µM
  viability, T/C: 46.6%
Second compound 0.1 µM, first compound 0.03 µM
  viability, T/C: 39.5%
Second compound 0.1 µM, first compound 0.0949 µM
  viability, T/C: 23.5%
Second compound 0.1 µM, first compound 0.3 µM
  viability, T/C: 5.3%
Second compound 0.316 µM, first compound 0.000949 µM
  viability, T/C: 49.3%
Second compound 0.316 µM, first compound 0.003 µM
  viability, T/C: 50.1%
Second compound 0.316 µM, first compound 0.00949 µM
  viability, T/C: 43.8%
Second compound 0.316 µM, first compound 0.03 µM
  viability, T/C: 33.6%
Second compound 0.316 µM, first compound 0.0949 µM
  viability, T/C: 24.4%
Second compound 0.316 µM, first compound 0.3 µM
  viability, T/C: 5.39%
Second compound 1 µM, first compound 0.000949 µM
  viability, T/C: 35.7%
Second compound 1 µM, first compound 0.003 µM
  viability, T/C: 36.7%
Second compound 1 µM, first compound 0.00949 µM
  viability, T/C: 40.4%
Second compound 1 µM, first compound 0.03 µM
  viability, T/C: 35.8%
Second compound 1 µM, first compound 0.0949 µM
  viability, T/C: 21.8%
Second compound 1 µM, first compound 0.3 µM
  viability, T/C: 6.84%

## NC1CCC(NC2CC2c2ccccc2)CC1 (stereo not given) + CNC(C)C(=O)NC1CN(S(=O)(=O)c2cccc(S(=O)(=O)N3CCC4CCC(C(=O)NC(c5ccccc5)c5ccccc5)N4C(=O)C(NC(=O)C(C)NC)C3)c2)CCC2CCC(C(=O)NC(c3ccccc3)c3ccccc3)N2C1=O
Second compound 0.01 µM
  IC50: > 100 nM
Second compound 0.0316 µM
  IC50: > 100 nM
Second compound 0.1 µM
  IC50: > 100 nM
Second compound 0.316 µM
  IC50: < 0.316 nM
Second compound 1 µM
  IC50: < 0.316 nM
Second compound 0.01 µM, first compound 0.000316 µM
  viability, T/C: 72.2%
Second compound 0.01 µM, first compound 0.001 µM
  viability, T/C: 70.7%
[1]
  viability, T/C: 71.7%
[2]
  viability, T/C: 77.2%
[3]
  viability, T/C: 77.4%
[4]
  viability, T/C: 66.1%
Second compound 0.0316 µM, first compound 0.000316 µM
  viability, T/C: 65.7%
Second compound 0.0316 µM, first compound 0.001 µM
  viability, T/C: 67.8%
[5]
  viability, T/C: 55.7%
[6]
  viability, T/C: 70.6%
[7]
  viability, T/C: 62.3%
[8]
  viability, T/C: 57.3%
Second compound 0.1 µM, first compound 0.000316 µM
  viability, T/C: 53.5%
Second compound 0.1 µM, first compound 0.001 µM
  viability, T/C: 60.9%
[9]
  viability, T/C: 47.3%
[10]
  viability, T/C: 55.5%
[11]
  viability, T/C: 52.4%
[12]
  viability, T/C: 64.5%
Second compound 0.316 µM, first compound 0.000316 µM
  viability, T/C: 45.6%
Second compound 0.316 µM, first compound 0.001 µM
  viability, T/C: 48.3%
[13]
  viability, T/C: 42.1%
[14]
  viability, T/C: 43.9%
[15]
  viability, T/C: 43.7%
[16]
  viability, T/C: 44.7%
Second compound 1 µM, first compound 0.000316 µM
  viability, T/C: 38.8%
Second compound 1 µM, first compound 0.001 µM
  viability, T/C: 41.9%
[17]
  viability, T/C: 42.9%
[18]
  viability, T/C: 40.2%
[19]
  viability, T/C: 35.7%
[20]
  viability, T/C: 46.9%
